Patent publication US20210403443A1, “SUBSTITUTED 1,2,4-OXADIAZOLE, ITS APPLICATION AND A PHARMACEUTICAL PREPARATION COMPRISING IT” (SVENOX PHARMACEUTICALS LLC, priority 2018, published 2021)
In brackets after ≈: the same amount, converted by molar mass. Read-outs that look alike come from different tables or passages of the source.

How the values were obtained:
M. avium CNCTC My 330/88 = test: MIC micromethod in Sula's medium, atypical strain M. avium; format: cell-based; settings: Mycobacterium avium, read-out: Minimum inhibiting concentration
Procedure: The prepared compounds with general formula I were tested by the Institute of Public Health in Ostrava (Department of Bacteriology and Mycology, Laboratory for Diagnostics of Mycobacteria, Partyzanské náměsti 7, 702 00 Ostrava) under in vitro conditions in liquid Sula's medium and their minimum inhibiting concentrations (MIC) were determined as the biological effect of molecules cannot be predicted. The antimycobacterial activity of the prepared compounds was tested on the collection strain Mycobacterium tuberculosis CNCTC My 331/88, collection atypical strains M. avium CNCTC My 330/88 and M. kansasii CNCTC My 235/80. Their activity was compared with the effect of isoniazide (INH), a commonly used medicament.

[1] = tested on: Mycobacterium tuberculosis CNCTC My 331/88; test: microbe, parasite or virus in culture; format: cell-based; settings: read-out: Minimum inhibiting concentration
[2] = tested on: M. kansasii CNCTC My 235/80; test: microbe, parasite or virus in culture; format: cell-based; settings: Mycobacterium kansasii, read-out: Minimum inhibiting concentration
[3] = 336 h, M. avium My 330/88, after 14 days of incubation
[4] = 504 h, M. avium My 330/88, after 21 days of incubation

Compound	melting point [°C]	MIC (M. avium CNCTC My 330/88; [3]) [µM]	MIC (M. avium CNCTC My 330/88; [4]) [µM]	MIC ([1]; 336 h) [µM]	MIC ([1]; 504 h) [µM]	MIC ([2]; 168 h) [µM]	MIC ([2]; 336 h) [µM]	MIC ([2]; 504 h) [µM]
O=[N+]([O-])c1cc(CSc2nc(-c3ccccc3Cl)no2)cc([N+](=O)[O-])c1 [Compound 6]	158 to 160	125 (≈ 49.1 µg/mL)	125 (≈ 49.1 µg/mL)	0.5 (≈ 0.196 µg/mL)	1 (≈ 0.393 µg/mL)	8 (≈ 3.14 µg/mL)	16 (≈ 6.28 µg/mL)	32 (≈ 12.6 µg/mL)
O=[N+]([O-])c1cc(CCc2nc(-c3ccccc3)no2)cc([N+](=O)[O-])c1 [Compound 11, 5-(3,5-Dinitrophenethyl)-3-phenyl-1,2,4-oxadiazole]	120 to 122	250 (≈ 85.1 µg/mL)	250 (≈ 85.1 µg/mL)	4 (≈ 1.36 µg/mL)	4 (≈ 1.36 µg/mL)	2 (≈ 0.681 µg/mL)	4 (≈ 1.36 µg/mL)	8 (≈ 2.72 µg/mL)
O=[N+]([O-])c1cc(CSc2nc(-c3ccc(Cl)cc3)no2)cc([N+](=O)[O-])c1 [Compound 4]	–	250 (≈ 98.2 µg/mL)	250 (≈ 98.2 µg/mL)	0.5 (≈ 0.196 µg/mL)	1 (≈ 0.393 µg/mL)	1 (≈ 0.393 µg/mL)	2 (≈ 0.786 µg/mL)	4 (≈ 1.57 µg/mL)
O=[N+]([O-])c1cc(CSc2nc(-c3cccc(Cl)c3)no2)cc([N+](=O)[O-])c1 [Compound 5]	133 to 135	250 (≈ 98.2 µg/mL)	250 (≈ 98.2 µg/mL)	0.5 (≈ 0.196 µg/mL)	1 (≈ 0.393 µg/mL)	2 (≈ 0.786 µg/mL)	2 (≈ 0.786 µg/mL)	4 (≈ 1.57 µg/mL)
O=[N+]([O-])c1cc(CSc2nc(-c3ccc(Br)cc3)no2)cc([N+](=O)[O-])c1 [Compound 9]	175 to 176	125 (≈ 54.7 µg/mL)	125 (≈ 54.7 µg/mL)	1 (≈ 0.437 µg/mL)	1 (≈ 0.437 µg/mL)	1 (≈ 0.437 µg/mL)	1 (≈ 0.437 µg/mL)	2 (≈ 0.874 µg/mL)
O=[N+]([O-])c1cc(CCc2nc(-c3ccc(Cl)c(Cl)c3)no2)cc([N+](=O)[O-])c1 [Compound 15]	154 to 155	250 (≈ 102 µg/mL)	250 (≈ 102 µg/mL)	> 32	> 32	32 (≈ 13.1 µg/mL)	> 32	> 32
COc1ccc(-c2noc(SCc3cc([N+](=O)[O-])cc([N+](=O)[O-])c3)n2)cc1 [Compound 3]	–	250 (≈ 97.1 µg/mL)	250 (≈ 97.1 µg/mL)	0.5 (≈ 0.194 µg/mL)	0.5 (≈ 0.194 µg/mL)	0.5 (≈ 0.194 µg/mL)	1 (≈ 0.388 µg/mL)	2 (≈ 0.777 µg/mL)
Cc1ccc(-c2noc(CCc3cc([N+](=O)[O-])cc([N+](=O)[O-])c3)n2)cc1 [Compound 12, 5-(3,5-Dinitrophenethyl)-3-(p-tolyl)-1,2,4-oxadiazole]	147 to 148	250 (≈ 88.6 µg/mL)	250 (≈ 88.6 µg/mL)	2 (≈ 0.709 µg/mL)	4 (≈ 1.42 µg/mL)	2 (≈ 0.709 µg/mL)	4 (≈ 1.42 µg/mL)	4 (≈ 1.42 µg/mL)
COc1ccc(-c2noc(CCc3cc([N+](=O)[O-])cc([N+](=O)[O-])c3)n2)cc1 [Compound 13]	128 to 129	250 (≈ 92.6 µg/mL)	250 (≈ 92.6 µg/mL)	0.5 (≈ 0.185 µg/mL)	1 (≈ 0.37 µg/mL)	0.5 (≈ 0.185 µg/mL)	1 (≈ 0.37 µg/mL)	2 (≈ 0.741 µg/mL)
Cc1ccc(-c2noc(SCc3cc([N+](=O)[O-])cc([N+](=O)[O-])c3)n2)cc1 [Compound 2, 5-((3,5-Dinitrobenzyl)sulfanyl)-3-(p-tolyl)-1,2,4-oxadiazole]	150 to 152	250 (≈ 93.1 µg/mL)	250 (≈ 93.1 µg/mL)	0.5 (≈ 0.186 µg/mL)	1 (≈ 0.372 µg/mL)	0.5 (≈ 0.186 µg/mL)	1 (≈ 0.372 µg/mL)	2 (≈ 0.745 µg/mL)
O=[N+]([O-])c1cc(CSc2nc(-c3ccc(F)cc3)no2)cc([N+](=O)[O-])c1 [Compound 8]	150 to 152	250 (≈ 94.1 µg/mL)	250 (≈ 94.1 µg/mL)	0.25 (≈ 0.0941 µg/mL)	0.5 (≈ 0.188 µg/mL)	0.5 (≈ 0.188 µg/mL)	1 (≈ 0.376 µg/mL)	2 (≈ 0.753 µg/mL)
O=[N+]([O-])c1cc(CCc2nc(-c3ccc(Cl)cc3)no2)cc([N+](=O)[O-])c1 [Compound 14]	182 to 183	250 (≈ 93.7 µg/mL)	250 (≈ 93.7 µg/mL)	> 32	> 32	> 32	> 32	> 32
O=[N+]([O-])c1cc(CCc2nc(-c3ccc(F)cc3)no2)cc([N+](=O)[O-])c1 [Compound 16]	169 to 171	250 (≈ 89.6 µg/mL)	250 (≈ 89.6 µg/mL)	> 32	> 32	> 32	> 32	> 32
O=[N+]([O-])c1cc(CSc2nc(-c3ccc(Cl)c(Cl)c3)no2)cc([N+](=O)[O-])c1 [Compound 7]	176 to 177	250 (≈ 107 µg/mL)	250 (≈ 107 µg/mL)	1 (≈ 0.427 µg/mL)	1 (≈ 0.427 µg/mL)	1 (≈ 0.427 µg/mL)	1 (≈ 0.427 µg/mL)	2 (≈ 0.854 µg/mL)
O=[N+]([O-])c1cc(CSc2nc(-c3ccccc3)no2)cc([N+](=O)[O-])c1 [Compound 1, 5-((3,5-Dinitrobenzyl)sulfanyl)-3-phenyl-1,2,4-oxadiazole]	135 to 136	250 (≈ 89.6 µg/mL)	250 (≈ 89.6 µg/mL)	0.5 (≈ 0.179 µg/mL)	1 (≈ 0.358 µg/mL)	0.5 (≈ 0.179 µg/mL)	1 (≈ 0.358 µg/mL)	1 (≈ 0.358 µg/mL)
